Results taken from ChEMBL document CHEMBL4610114, “Fragment-Based Discovery of Pyrazolopyridones as JAK1 Inhibitors with Excellent Subtype Selectivity” (J Med Chem, 2020).
Converted amounts (≈) assume the structure as drawn.

Key:
physchem [1] = conditions: octanol/water
Description: Lipophilicity, logD of the compound by shake flask assay

in vitro [2] = conditions: human, liver microsomes
Description: Apparent intrinsic clearance in human liver microsomes

[3] = biological target: T1, Tyrosine-protein kinase JAK1 (Homo sapiens, UniProt P23458)
[4] = biological target: T1, Tyrosine-protein kinase JAK1; remark: listed apart in the source
Description: Inhibition of JAK1 in human STAT6-bla-RA1 cells assessed as reduction in IL4-induced STAT6-signalling pre-incubated for 1 hrs before human recombinant IL4 addition and further incubated for 4 hrs fluorescence based assay

physchem [5] = conditions: PBS buffer, pH 7.4
Description: Aqueous solubility in PBS buffer at pH 7.4 by HPLC analysis

[6] = biological target: T2, Tyrosine-protein kinase JAK2 (Homo sapiens, UniProt O60674)
[7] = biological target: T2, Tyrosine-protein kinase JAK2; remark: listed apart in the source
Description: Inhibition of JAK2 in human STAT5-irf1-bla TF1 cells assessed as reduction in EPO-induced STAT5-signalling pre-incubated for 1 hrs before EPO addition and further incubated for 4 hrs fluorescence based assay

[8] = biological target: T3, Tyrosine-protein kinase JAK3 (Homo sapiens, UniProt P52333)
T3 sequence (P52333 whole entry): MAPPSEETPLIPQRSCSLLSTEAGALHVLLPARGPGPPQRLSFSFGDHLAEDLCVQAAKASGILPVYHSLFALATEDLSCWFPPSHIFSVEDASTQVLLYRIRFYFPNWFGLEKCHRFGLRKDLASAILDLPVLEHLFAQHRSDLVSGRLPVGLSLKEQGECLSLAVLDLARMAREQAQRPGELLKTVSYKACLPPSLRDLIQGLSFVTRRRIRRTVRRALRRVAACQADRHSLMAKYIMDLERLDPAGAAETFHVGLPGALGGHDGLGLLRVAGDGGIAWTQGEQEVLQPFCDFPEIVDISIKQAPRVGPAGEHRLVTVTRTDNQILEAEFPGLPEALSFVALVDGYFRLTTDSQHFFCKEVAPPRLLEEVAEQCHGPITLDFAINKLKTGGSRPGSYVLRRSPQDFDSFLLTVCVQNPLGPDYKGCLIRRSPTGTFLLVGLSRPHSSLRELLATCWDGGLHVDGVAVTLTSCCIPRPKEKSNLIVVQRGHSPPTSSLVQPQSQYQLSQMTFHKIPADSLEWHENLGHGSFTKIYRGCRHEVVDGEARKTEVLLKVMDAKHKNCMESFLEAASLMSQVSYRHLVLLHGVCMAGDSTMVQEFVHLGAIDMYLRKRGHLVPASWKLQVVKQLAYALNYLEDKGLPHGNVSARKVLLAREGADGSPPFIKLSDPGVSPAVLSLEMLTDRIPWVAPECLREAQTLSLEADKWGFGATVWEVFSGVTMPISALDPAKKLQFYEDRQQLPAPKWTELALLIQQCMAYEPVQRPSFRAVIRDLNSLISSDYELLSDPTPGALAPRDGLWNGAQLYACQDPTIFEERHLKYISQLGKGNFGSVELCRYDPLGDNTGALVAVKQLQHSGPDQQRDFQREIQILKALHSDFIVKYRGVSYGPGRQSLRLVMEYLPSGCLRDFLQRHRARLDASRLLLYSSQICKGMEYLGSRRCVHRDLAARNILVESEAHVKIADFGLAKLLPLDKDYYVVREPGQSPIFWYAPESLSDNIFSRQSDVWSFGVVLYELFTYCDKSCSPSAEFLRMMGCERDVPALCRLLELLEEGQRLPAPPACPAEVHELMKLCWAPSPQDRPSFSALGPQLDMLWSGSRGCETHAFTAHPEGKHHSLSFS

[9] = biological target: Non-receptor tyrosine-protein kinase TYK2 (Homo sapiens, UniProt P29597)
[10] = Drug absorption in rat at […], po; format: ADME, organism-based; conditions: in vivo, read-out: Fabs
Cytochrome P450 1A2 = biological target: T4, Cytochrome P450 1A2 (Homo sapiens, UniProt P05177); test: Inhibition of CYP1A2 (unknown origin) up to 25 uM; format: ADME
T4 sequence (P05177 whole entry): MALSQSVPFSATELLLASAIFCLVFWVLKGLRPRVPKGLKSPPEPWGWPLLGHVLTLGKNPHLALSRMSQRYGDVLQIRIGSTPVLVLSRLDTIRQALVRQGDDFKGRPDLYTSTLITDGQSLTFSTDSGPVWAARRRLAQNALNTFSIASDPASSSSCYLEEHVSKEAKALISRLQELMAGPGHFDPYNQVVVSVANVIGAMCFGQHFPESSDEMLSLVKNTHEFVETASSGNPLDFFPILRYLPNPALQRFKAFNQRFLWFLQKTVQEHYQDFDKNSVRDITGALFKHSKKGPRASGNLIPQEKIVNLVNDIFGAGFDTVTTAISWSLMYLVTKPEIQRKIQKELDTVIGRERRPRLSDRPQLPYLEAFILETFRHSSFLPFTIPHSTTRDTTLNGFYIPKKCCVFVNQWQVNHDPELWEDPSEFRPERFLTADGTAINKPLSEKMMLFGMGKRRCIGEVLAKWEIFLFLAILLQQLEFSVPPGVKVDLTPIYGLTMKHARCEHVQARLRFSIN

[11] = Protein binding in rat plasma assessed as unbound fraction; format: ADME, cell-free
Cytochrome P450 2C19 = Cytochrome P450 2C19 (Homo sapiens, UniProt P33261); test: Inhibition of CYP2C19 (unknown origin) up to 25 uM; format: ADME
in vitro [12] = conditions: rat, hepatocytes
Description: Apparent intrinsic clearance in rat hepatocytes

[13] = biological target: Fibroblast growth factor receptor 1 (Homo sapiens) (UniProt P11362); test: Inhibition of human FGFR1 cytoplasmic domain (398 to 822(end) residues) at 1 mM ATP relative to control
[14] = Clearance in rat at […], po or 0.06 mg/kg, iv; format: ADME, organism-based; conditions: in vivo
Cytochrome P450 3A4 = Cytochrome P450 3A4 (Homo sapiens, UniProt P08684); test: Inhibition of CYP3A4 (unknown origin) up to 25 uM; format: ADME
in vitro [15] = conditions: rat, liver microsomes
Description: Apparent intrinsic clearance in rat liver microsomes

[16] = Oral bioavailability in rat at […]; format: ADME, organism-based; conditions: in vivo
Cytochrome P450 2C9 = Cytochrome P450 2C9 (Homo sapiens, UniProt P11712); test: Inhibition of CYP2C9 (unknown origin) up to 25 uM; format: ADME
[17] = Apparent permeability in human Caco2 cells; format: ADME, cell-based; conditions: Caco-2
[18] = biological target: Voltage-gated inwardly rectifying potassium channel KCNH2 (Homo sapiens, UniProt Q12809); test: Binding affinity to human ERG at 30 uM
[19] = Terminal Phase volume of distribution […] in rat at […], po or 0.06 mg/kg, iv; format: ADME, organism-based; conditions: in vivo, read-out: Vbeta
Cytochrome P450 2D6 = Cytochrome P450 2D6 (Homo sapiens, UniProt P10635); test: Inhibition of CYP2D6 (unknown origin) up to 25 uM; format: ADME
[20] = Half life in rat at […], po or 0.06 mg/kg, iv; format: ADME, organism-based; conditions: in vivo

Sequence of Non-receptor tyrosine-protein kinase TYK2 (P29597 whole entry): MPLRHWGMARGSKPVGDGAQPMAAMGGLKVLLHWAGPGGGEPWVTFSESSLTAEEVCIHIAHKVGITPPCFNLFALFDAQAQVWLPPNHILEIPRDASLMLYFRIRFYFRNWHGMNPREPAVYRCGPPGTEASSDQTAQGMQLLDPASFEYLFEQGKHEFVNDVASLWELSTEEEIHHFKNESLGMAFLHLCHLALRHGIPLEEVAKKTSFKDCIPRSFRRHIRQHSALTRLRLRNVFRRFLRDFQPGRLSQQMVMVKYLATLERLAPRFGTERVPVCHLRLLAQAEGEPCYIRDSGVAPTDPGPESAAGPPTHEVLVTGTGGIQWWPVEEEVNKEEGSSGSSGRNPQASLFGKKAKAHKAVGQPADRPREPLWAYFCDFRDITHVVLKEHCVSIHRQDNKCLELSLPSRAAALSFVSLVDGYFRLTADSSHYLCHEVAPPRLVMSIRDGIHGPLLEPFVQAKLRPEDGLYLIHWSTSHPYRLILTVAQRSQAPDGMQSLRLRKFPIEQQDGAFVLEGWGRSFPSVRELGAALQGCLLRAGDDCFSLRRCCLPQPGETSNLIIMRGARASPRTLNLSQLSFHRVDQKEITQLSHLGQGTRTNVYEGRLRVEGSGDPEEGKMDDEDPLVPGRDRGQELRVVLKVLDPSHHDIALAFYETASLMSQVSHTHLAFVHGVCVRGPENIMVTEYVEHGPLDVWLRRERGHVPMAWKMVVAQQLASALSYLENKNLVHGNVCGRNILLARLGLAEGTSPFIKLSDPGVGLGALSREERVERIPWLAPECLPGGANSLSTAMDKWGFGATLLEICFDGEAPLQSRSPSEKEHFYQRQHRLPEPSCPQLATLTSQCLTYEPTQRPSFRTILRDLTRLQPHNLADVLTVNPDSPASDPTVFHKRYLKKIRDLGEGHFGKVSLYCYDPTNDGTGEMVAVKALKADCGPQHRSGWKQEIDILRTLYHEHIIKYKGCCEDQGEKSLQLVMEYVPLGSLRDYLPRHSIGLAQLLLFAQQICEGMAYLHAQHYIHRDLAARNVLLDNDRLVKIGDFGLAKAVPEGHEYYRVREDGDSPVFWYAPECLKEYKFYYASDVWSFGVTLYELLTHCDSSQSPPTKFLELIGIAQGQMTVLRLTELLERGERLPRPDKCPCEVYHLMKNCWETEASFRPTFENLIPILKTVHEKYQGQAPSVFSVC
T1 sequence (P23458 whole entry): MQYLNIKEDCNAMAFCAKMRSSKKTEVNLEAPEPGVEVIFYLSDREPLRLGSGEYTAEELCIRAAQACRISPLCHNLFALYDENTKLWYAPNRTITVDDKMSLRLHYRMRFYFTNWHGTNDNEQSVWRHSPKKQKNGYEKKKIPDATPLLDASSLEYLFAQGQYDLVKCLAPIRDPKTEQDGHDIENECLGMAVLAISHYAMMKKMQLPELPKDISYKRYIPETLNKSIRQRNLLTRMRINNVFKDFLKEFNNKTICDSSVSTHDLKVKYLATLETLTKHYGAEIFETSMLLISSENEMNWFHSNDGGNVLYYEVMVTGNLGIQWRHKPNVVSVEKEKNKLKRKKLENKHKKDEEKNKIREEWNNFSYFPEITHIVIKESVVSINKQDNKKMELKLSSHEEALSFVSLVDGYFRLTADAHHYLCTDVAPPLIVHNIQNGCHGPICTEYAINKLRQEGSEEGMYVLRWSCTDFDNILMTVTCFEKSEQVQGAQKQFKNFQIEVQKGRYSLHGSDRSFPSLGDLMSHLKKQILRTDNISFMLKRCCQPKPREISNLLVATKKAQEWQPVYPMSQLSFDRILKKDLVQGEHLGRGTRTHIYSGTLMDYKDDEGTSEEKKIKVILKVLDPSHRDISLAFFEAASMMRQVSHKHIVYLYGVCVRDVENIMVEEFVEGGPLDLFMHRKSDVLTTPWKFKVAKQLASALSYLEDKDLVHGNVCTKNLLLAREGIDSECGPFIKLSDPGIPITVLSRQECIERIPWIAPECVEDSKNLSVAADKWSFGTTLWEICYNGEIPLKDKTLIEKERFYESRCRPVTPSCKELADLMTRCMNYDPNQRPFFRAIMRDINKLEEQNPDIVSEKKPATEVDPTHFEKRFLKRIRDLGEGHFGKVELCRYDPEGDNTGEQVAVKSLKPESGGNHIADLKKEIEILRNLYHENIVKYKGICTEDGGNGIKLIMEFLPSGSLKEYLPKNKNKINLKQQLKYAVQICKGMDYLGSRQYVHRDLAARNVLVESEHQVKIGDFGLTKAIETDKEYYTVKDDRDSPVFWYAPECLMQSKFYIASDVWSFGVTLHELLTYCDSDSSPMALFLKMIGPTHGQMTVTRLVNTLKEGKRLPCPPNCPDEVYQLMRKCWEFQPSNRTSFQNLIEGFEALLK
T2 sequence (O60674 whole entry): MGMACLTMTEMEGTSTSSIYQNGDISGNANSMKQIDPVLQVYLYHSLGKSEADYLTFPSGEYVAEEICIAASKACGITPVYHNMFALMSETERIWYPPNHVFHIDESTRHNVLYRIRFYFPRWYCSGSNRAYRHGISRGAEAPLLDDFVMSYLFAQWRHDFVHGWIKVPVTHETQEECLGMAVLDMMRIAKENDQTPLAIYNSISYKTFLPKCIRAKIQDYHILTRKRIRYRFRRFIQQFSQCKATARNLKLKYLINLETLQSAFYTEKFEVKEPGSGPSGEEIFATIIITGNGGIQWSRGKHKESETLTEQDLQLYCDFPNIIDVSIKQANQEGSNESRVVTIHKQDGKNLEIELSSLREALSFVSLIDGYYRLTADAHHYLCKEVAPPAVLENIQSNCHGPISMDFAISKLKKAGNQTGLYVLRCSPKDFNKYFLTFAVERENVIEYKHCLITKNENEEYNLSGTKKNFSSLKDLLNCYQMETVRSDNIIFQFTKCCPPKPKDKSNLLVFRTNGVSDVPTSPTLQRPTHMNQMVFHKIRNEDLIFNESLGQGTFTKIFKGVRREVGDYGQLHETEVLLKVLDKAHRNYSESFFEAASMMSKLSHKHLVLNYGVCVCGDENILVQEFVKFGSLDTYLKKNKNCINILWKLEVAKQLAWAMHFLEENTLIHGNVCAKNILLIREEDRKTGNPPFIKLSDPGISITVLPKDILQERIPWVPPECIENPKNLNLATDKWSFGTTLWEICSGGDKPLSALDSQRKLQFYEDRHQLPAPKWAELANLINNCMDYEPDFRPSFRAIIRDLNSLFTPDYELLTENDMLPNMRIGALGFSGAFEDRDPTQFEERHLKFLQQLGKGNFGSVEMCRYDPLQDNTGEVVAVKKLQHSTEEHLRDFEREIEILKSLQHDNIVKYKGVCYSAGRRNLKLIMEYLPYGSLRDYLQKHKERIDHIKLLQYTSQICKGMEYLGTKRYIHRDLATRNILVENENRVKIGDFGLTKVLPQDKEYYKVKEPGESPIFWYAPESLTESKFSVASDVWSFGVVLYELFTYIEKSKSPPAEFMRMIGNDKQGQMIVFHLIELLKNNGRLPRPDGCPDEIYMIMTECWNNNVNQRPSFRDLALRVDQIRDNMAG
Sequence of Voltage-gated inwardly rectifying potassium channel KCNH2 (Q12809 whole entry): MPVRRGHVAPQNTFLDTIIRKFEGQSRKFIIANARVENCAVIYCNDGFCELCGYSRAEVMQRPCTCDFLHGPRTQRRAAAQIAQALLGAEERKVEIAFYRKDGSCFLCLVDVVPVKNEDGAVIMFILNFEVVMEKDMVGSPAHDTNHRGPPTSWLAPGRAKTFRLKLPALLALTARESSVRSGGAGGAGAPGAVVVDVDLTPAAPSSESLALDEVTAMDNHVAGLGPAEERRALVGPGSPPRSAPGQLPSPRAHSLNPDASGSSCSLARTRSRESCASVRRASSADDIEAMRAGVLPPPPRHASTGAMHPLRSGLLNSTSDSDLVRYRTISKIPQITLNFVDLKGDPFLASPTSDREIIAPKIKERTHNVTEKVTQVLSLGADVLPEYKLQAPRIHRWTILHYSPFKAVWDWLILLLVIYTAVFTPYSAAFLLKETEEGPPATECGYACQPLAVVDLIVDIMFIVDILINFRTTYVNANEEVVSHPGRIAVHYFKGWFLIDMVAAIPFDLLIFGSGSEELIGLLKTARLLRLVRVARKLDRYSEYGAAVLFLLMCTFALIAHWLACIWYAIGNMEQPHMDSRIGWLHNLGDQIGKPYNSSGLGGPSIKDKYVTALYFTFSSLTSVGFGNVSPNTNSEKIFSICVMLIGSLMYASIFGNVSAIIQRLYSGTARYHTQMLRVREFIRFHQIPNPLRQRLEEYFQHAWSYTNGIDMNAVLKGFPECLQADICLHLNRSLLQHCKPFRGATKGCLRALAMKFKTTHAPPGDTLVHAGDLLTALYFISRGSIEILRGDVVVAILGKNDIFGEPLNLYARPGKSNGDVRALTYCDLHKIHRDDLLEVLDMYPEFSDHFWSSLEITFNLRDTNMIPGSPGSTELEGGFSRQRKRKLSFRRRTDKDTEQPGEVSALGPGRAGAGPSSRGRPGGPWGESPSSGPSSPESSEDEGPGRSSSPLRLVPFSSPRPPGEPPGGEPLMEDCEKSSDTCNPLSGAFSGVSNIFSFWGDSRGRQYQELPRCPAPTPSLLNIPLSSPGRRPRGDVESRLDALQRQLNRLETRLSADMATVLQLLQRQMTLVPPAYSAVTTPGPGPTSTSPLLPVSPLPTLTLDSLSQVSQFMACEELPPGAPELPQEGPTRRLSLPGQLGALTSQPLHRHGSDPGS
Sequence of Cytochrome P450 2D6 (P10635 whole entry): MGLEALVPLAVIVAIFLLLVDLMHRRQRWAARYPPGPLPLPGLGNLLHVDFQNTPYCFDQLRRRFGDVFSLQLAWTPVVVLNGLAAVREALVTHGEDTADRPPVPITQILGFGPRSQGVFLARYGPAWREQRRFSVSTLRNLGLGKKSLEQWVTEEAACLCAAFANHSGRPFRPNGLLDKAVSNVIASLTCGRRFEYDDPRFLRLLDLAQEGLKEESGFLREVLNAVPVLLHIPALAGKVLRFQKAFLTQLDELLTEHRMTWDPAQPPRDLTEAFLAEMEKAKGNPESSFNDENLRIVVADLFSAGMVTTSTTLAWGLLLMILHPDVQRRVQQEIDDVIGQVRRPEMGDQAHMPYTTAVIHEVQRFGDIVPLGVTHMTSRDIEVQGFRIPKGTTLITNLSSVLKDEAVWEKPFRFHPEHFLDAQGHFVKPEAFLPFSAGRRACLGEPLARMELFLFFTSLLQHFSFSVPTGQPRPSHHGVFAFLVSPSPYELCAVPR

| logD (physchem [1]) | CLint scaled (in vitro [2]) [mL/min/kg] | IC50 [3] [nM] | IC50 [4] [nM] | solubility (physchem [5]) [µM] | IC50 [6] [nM] | IC50 [7] [nM] | IC50 [8] [nM] | IC50 [9] [nM] | SMILES | further results |
| --- | --- | --- | --- | --- | --- | --- | --- | --- | --- | --- |
| 0.7 | < 8 | 11 | 14000 | 85 (≈ 31.2 µg/mL) | 89 | > 45000 | 150 |  | Cc1[nH]nc2[nH]c(=O)cc([C@H]3CC[C@H](CC(=O)N4CCC(C#N)C4)CC3)c12 (mixture of isomers) |  |
| 0.5 | < 8 | 13 | > 30000 | 540 (≈ 191 µg/mL) | 64 | > 30000 | 97 |  | Cc1[nH]nc2[nH]c(=O)cc([C@H]3CC[C@H](CC(=O)N4CC(C#N)C4)CC3)c12 |  |
| 1.6 | < 8 |  |  | 290 (≈ 81.9 µg/mL) | 360 | > 43000 | 970 | 330 | Cc1[nH]nc2[nH]c(=O)cc([C@H]3C[C@H]4C[C@@H]3C[C@H]4CC#N)c12 |  |
| 1.5 | < 8 |  |  | 89 (≈ 25.1 µg/mL) | 12 | 2800 | 88 | 20 | Cc1[nH]nc2[nH]c(=O)cc([C@H]3C[C@H]4C[C@@H]3C[C@@H]4CC#N)c12 | Fa [10]: 41%; inhibition (INH) (Cytochrome P450 1A2): Not Active; fraction unbound [11]: 0.22; inhibition (INH) (Cytochrome P450 2C19): Not Active; CLint scaled (in vitro [12]): 25 mL/min/kg; inhibition [13]: 32%; clearance [14]: 53 mL/min/kg; inhibition (INH) (Cytochrome P450 3A4): Not Active; CLint scaled (in vitro [15]): < 15 mL/min/kg; bioavailability [16]: 14%; inhibition (INH) (Cytochrome P450 2C9): Not Active; Papp [17]: 0.7 ×10⁻⁶ cm/s; Activity [18]: Not Active; Vd [19]: 1.2 L/kg; inhibition (INH) (Cytochrome P450 2D6): Not Active; half-life [20]: 18 min |
| 1.5 | < 8 |  |  | > 92 | 150 | 24000 | 220 | 220 | Cc1[nH]nc2[nH]c(=O)cc([C@@H]3C[C@@H]4C[C@H]3C[C@@H]4CC#N)c12 |  |
